Assay results from patent US20120040951A1, “HETEROARYL COMPOUNDS USEFUL AS RAF KINASE INHIBITORS” (priority 2008, published 2012).

What was measured:
V599E Raf = V599E Raf (Homo sapiens, UniProt P15056, V600E); experiment: Biochemical FRET assay, mutant Raf (phosphorylation of MEK); details: 0.125 nM V599E Raf, 100 nM biotin-MEK, 25 μM ATP, read-out: Raf (mut) inhibition
Method: (1) Biochemical FRET Assay […]
Inhibitors were diluted 4-fold in 100% DMSO and added to a final concentration of 10 μM to 40 μM to a solution containing 100 nM biotin-MEK, 0.125 nM V599E Raf in 50 mM HEPES, pH 7.4, 60 mM NaCl, 3 mM MgCl2, 2 mM DTT, 0.25 mM MnCl2, 0.01% BSA, and 0.01% Tween-20 and incubated for 20 minutes at room temperature. The kinase reaction was started by the addition of 25 μM ATP to a final volume of 45 μl and allowed to progress for 60 minutes. The reaction was stopped with 15 mM EDTA and 20 nM Streptavidin-APC, 2.5 nM Polyclonal anti p-MEK1/2 (Ser217/221), 2.5 nM Eu-labeled anti-rabbit IgG were added in Lance detection buffer and 5% Superblock in PBS for a final volume of 100 μl. The detection reaction was incubated for 90 minutes at room temperature and then read on an Analyst plate reader using standard TR-FRET (time resolved fluorescence resonance energy transfer) settings for Eu and APC.
Compounds having an activity designated as “A” provided an IC50≦100 nM; compounds having an activity designated as “B” provided an IC50 of 100-1000 nM; and compounds having an activity designated as “C” provided an IC50 of 1000-10,000 nM.

[1] = system: phospho-ERK in melanoma derived WM-266-4 cells; experiment: Mechanistic cellular assay for Raf kinase activity (phospho-ERK, Bio-Plex); assay type: cell-based; details: Homo sapiens, treated 1-2 hr at 37° C., serum free medium, read-out: pERK EC50
In short: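 WM-266-4 melanoma cells (wild-type/V600D BRaf) grown overnight in 10% FBS RPMI, then treated 1–2 h at 37 °C in serum-free RPMI with eight 3-fold dilutions of compound (from 5 mM DMSO stock, 1000× dilution). Lysate phospho-ERK1,2 quantified by Bio-Plex bead immunoassay.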

Chain of V599E Raf (P15056 whole entry V600E): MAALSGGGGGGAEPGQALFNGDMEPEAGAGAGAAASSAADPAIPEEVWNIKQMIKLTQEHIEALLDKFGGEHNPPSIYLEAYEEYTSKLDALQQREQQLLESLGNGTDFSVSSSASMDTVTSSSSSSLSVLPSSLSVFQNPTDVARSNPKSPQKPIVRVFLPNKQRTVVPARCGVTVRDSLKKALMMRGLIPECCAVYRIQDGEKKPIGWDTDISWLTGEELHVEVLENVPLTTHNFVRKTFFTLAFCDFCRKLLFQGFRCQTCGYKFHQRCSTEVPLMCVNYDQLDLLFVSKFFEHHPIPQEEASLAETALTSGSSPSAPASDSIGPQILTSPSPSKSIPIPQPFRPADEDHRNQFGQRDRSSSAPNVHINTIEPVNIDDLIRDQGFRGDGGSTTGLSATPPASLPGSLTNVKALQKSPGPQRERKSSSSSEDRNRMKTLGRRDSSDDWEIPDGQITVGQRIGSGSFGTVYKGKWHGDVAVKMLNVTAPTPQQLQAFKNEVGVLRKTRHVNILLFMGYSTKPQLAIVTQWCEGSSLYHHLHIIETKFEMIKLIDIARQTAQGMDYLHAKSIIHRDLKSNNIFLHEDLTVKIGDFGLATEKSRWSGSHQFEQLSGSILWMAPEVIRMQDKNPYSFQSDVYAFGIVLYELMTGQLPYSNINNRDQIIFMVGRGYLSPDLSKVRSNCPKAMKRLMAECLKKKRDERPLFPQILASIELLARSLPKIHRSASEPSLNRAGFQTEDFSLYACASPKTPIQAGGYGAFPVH

| Compound | IC50 (V599E Raf) [nM] | EC50 [1] [nM] |
| --- | --- | --- |
| CCn1ncc(C(=O)N[C@H](C)c2ncc(C(=O)Nc3cc(C(F)(F)F)c(Cl)cn3)s2)c1C [Example 126] | ≤ 100 | ≤ 100 |
| C[C@@H](NC(=O)c1cc2c(cn1)ncn2C)c1cnc(Nc2cnc(C(C)(C)C)nc2)s1 [Example 241] | ≤ 100 | ≤ 100 |
| C[C@@H](NC(=O)c1cnn2ccccc12)c1ncc(C(=O)Nc2cc(C(F)(F)F)c(Cl)cn2)s1 [Example 86] | ≤ 100 | 100 to 1000 |
| C[C@@H](NC(=O)c1cnn(C)c1N)c1ncc(C(=O)Nc2cc(C(F)(F)F)c(Cl)cn2)s1 [Example 127] | ≤ 100 | ≤ 100 |
| CC(NC(=O)c1cnn2ccccc12)c1cnc(Nc2ccc(C(F)(F)F)cc2)s1 (stereo not shown) [Example 224] | ≤ 100 | 100 to 1000 |
| C[C@@H](NC(=O)c1cc2c(cn1)ncn2C1CCC1)c1cnc(Nc2ccc(C(F)(F)F)cc2)cn1 (single isomer, unassigned) [Example 188] | ≤ 100 | ≤ 100 |
| C[C@@H](NC(=O)c1cnc2n1CCN(C)C2)c1ncc(C(=O)Nc2cc(C(F)(F)F)c(Cl)cn2)s1 [Example 317] | 100 to 1000 | 1000 to 10000 |
| CC(NC(=O)c1cc2c(cn1)ncn2C)c1cnc(Nc2cccc(C(C)(C)C(F)(F)F)c2)cn1 (stereo not shown) [Example 273] | ≤ 100 | ≤ 100 |
| CC(NC(=O)c1cnn(C)c1)c1cnc(Nc2ccc(C(F)(F)F)cc2)s1 (stereo not shown) [Example 109] | ≤ 100 | 1000 to 10000 |
| CC(NC(=O)c1cn2c(C(F)(F)F)cnc2cn1)c1cnc(Nc2ccc(C(F)(F)F)cc2)s1 (stereo not shown) [Example 300] | ≤ 100 | 1000 to 10000 |
| C[C@@H](NC(=O)c1cc2c(cn1)ncn2C1CN(C(=O)OC(C)(C)C)C1)c1cnc(Nc2ccc(C(F)(F)F)cc2)s1 [Example 24] | ≤ 100 | ≤ 100 |
| CC(NC(=O)c1cnn2cccnc12)c1cnc(Nc2ccc(C(F)(F)F)cc2)s1 (stereo not shown) [Example 225] | ≤ 100 | 1000 to 10000 |
| C[C@@H](NC(=O)c1cc2c(cn1)ncn2C1CNC1)c1cnc(Nc2ccc(C(F)(F)F)cc2)s1 [Example 27] | ≤ 100 | 100 to 1000 |
| Cc1ccc(NC(=O)c2cc([C@H](C)NC(=O)c3cnn4ccccc34)on2)cc1C(F)(F)F [Example 227] | ≤ 100 | 100 to 1000 |
| C[C@@H](NC(=O)c1cnn(C)c1CNC1CC1)c1ncc(C(=O)Nc2cc(C(F)(F)F)c(Cl)cn2)s1 [Example 133] | 100 to 1000 | 100 to 1000 |
| C[C@@H](NC(=O)c1cc2c(cn1)ncn2C)c1cnc(Nc2ccc(C(F)(F)F)cc2)s1 [Example 4] | ≤ 100 | ≤ 100 |
| C[C@@H](NC(=O)c1cc2c(cn1)ncn2[C@H]1CCNC1)c1cnc(Nc2ccc(C(F)(F)F)cc2)s1 [Example 31] | ≤ 100 | 100 to 1000 |
| C[C@@H](NC(=O)c1cnc2n1CCCN2C)c1ncc(C(=O)Nc2cc(C(F)(F)F)c(Cl)cn2)s1 [Example 167] | ≤ 100 | 100 to 1000 |
| C[C@H](NC(=O)c1cc2c(cn1)ncn2C)c1cnc(Nc2ccc(C(F)(F)F)nc2)s1 (single isomer, unassigned) [Example 267] | ≤ 100 | ≤ 100 |
| CCn1cnc2cnc(C(=O)NC(C)c3cnc(Nc4cnc(C(C)(C)C)nc4)s3)cc21 (stereo not shown) [Example 285] | ≤ 100 | ≤ 100 |
| C[C@@H](NC(=O)c1cnc(C#N)n1C)c1ncc(C(=O)Nc2cc(C(F)(F)F)c(Cl)cn2)s1 [Example 150] | ≤ 100 | 1000 to 10000 |
| CC(NC(=O)c1cc2c(cn1)ncn2C1CN(C(C)C)C1)c1cnc(Nc2ccc(C(F)(F)F)cc2)cn1 (stereo not shown) [Example 181] | ≤ 100 | 100 to 1000 |
| CC(NC(=O)c1ccc2ncn(C)c2c1)c1cnc(Nc2ccc(C(F)(F)F)cc2)s1 (stereo not shown) [Example 76] | ≤ 100 | 1000 to 10000 |
| C[C@@H](NC(=O)c1cnc(N2CCN(C)CC2)s1)c1ncc(C(=O)Nc2cc(C(F)(F)F)c(Cl)cn2)s1 [Example 106] | ≤ 100 | 1000 to 10000 |
| CCOc1cc(C(F)(F)F)ccc1Nc1ncc(C(C)NC(=O)c2cc3c(cn2)ncn3C)s1 (stereo not shown) [Example 283] | ≤ 100 | 100 to 1000 |
| C[C@@H](NC(=O)c1cccc(N2CCCCC2)n1)c1ncc(C(=O)Nc2cc(C(F)(F)F)c(Cl)cn2)s1 [Example 94] | 100 to 1000 | 1000 to 10000 |
| CC(NC(=O)c1cc2nc[nH]c2cn1)c1ncc(C(=O)Nc2cc(C(F)(F)F)c(Cl)cn2)s1 (stereo not shown) [Example 77] | ≤ 100 | ≤ 100 |

| Compound | IC50 (V599E Raf) [nM] | EC50 [1] [nM] |
| --- | --- | --- |
| CCCNc1ncc(C(=O)N[C@H](C)c2ncc(C(=O)Nc3cc(C(F)(F)F)c(Cl)cn3)s2)n1C [Example 153] | 100 to 1000 | 1000 to 10000 |
| CNc1nc(C(C)(C)C)ncc1Nc1ncc(C(C)NC(=O)c2cc3c(cn2)ncn3C)s1 (stereo not shown) [Example 280] | ≤ 100 | 100 to 1000 |
| COc1nc(C(C)(C)C)ncc1Nc1ncc(C(C)NC(=O)c2cc3c(cn2)ncn3C)s1 (stereo not shown) [Example 270] | ≤ 100 | ≤ 100 |
| CCNCCn1cnc2cnc(C(=O)NC(C)c3cnc(Nc4ccc(C(F)(F)F)cc4)s3)cc21 (stereo not shown) [Example 34] | ≤ 100 | 100 to 1000 |
| CC(NC(=O)c1cc2c(cn1)ncn2CCO)c1cnc(Nc2ccc(C(F)(F)F)cc2)s1 (stereo not shown) [Example 25] | ≤ 100 | 100 to 1000 |
| C[C@@H](NC(=O)c1ccc2c(c1)OCCN2C)c1ncc(C(=O)Nc2cc(C(F)(F)F)c(Cl)cn2)s1 [Example 71] | ≤ 100 | 1000 to 10000 |
| COCCn1c(C(=O)NC(C)c2cnc(Nc3ccc(C(F)(F)F)cc3)s2)cnc1C (stereo not shown) [Example 140] | ≤ 100 | 1000 to 10000 |
| CC(=O)N1CC(n2cnc3cnc(C(=O)N[C@H](C)c4cnc(Nc5ccc(C(F)(F)F)cc5)s4)cc32)C1 [Example 347] | ≤ 100 | 100 to 1000 |
| CC(NC(=O)c1cc2cn(C)nc2cn1)c1cnc(Nc2ccc(C(F)(F)F)cc2)s1 (stereo not shown) [Example 203] | ≤ 100 | ≤ 100 |
| C[C@@H](NC(=O)c1cc2c(cn1)ncn2C1CCC1)c1cnc(Nc2ccc(C(F)(F)F)cc2)s1 [Example 176] | ≤ 100 | ≤ 100 |
| C[C@@H](NC(=O)c1cccc(Br)n1)c1ncc(C(=O)Nc2cc(C(F)(F)F)c(Cl)cn2)s1 [Example 91] | 100 to 1000 | 1000 to 10000 |
| C[C@@H](NC(=O)c1cnn(-c2ccccn2)c1)c1ncc(C(=O)Nc2cc(C(F)(F)F)c(Cl)cn2)s1 [Example 119] | ≤ 100 | 1000 to 10000 |
| COc1cc(C(F)(F)F)ccc1Nc1cnc(C(C)NC(=O)c2cc3c(cn2)ncn3C)cn1 (stereo not shown) [Example 265b] | ≤ 100 | 100 to 1000 |
| C[C@@H](NC(=O)c1cn2c(Br)cnc2cn1)c1cnc(Nc2ccc(C(F)(F)F)cc2)s1 [Example 298] | ≤ 100 | ≤ 100 |
| CC(NC(=O)c1cnn2ccccc12)c1ncc(C(=O)Nc2ccc(Cl)c(C(F)(F)F)c2)s1 (stereo not shown) [Example 222] | 100 to 1000 | ≤ 100 |
| COC(=O)c1cc(Nc2ncc(C(C)NC(=O)c3cc4c(cn3)ncn4C)s2)cc(C(C)(C)C)c1 (stereo not shown) [Example 351] | ≤ 100 | 100 to 1000 |
| Cc1ncoc1C(=O)N[C@H](C)c1ncc(C(=O)Nc2cc(C(F)(F)F)c(Cl)cn2)s1 [Example 103] | ≤ 100 | 1000 to 10000 |
| CC(NC(=O)c1cnc2nccn2c1)c1cnc(Nc2ccc(C(F)(F)F)cc2)s1 (stereo not shown) [Example 309] | 100 to 1000 | 1000 to 10000 |
| CCc1nc(C(C)(C)C)ncc1Nc1ncc(C(C)NC(=O)c2cc3c(cn2)ncn3C)s1 (stereo not shown) [Example 295] | 100 to 1000 | ≤ 100 |
| CC(NC(=O)c1cc2c(cn1)ncn2C)c1cnc(Nc2cc(C(N)=O)cc(C(C)(C)C)c2)s1 (stereo not shown) [Example 353] | ≤ 100 | 1000 to 10000 |
| C[C@@H](NC(=O)c1cnn(C)c1CN1CCC(F)(F)C1)c1ncc(C(=O)Nc2cc(C(F)(F)F)c(Cl)cn2)s1 [Example 130] | 100 to 1000 | 100 to 1000 |
| Cc1nc(C)c(C(=O)N[C@H](C)c2ncc(C(=O)Nc3cc(C(F)(F)F)c(Cl)cn3)s2)s1 [Example 101] | ≤ 100 | 1000 to 10000 |
| CC(NC(=O)c1cc2c(cn1)ncn2C)c1cnc(Nc2ccc(F)c(C(C)(C)C(F)(F)F)c2)s1 (stereo not shown) [Example 290] | ≤ 100 | ≤ 100 |
| Cc1scnc1C(=O)N[C@H](C)c1ncc(C(=O)Nc2cc(C(F)(F)F)c(Cl)cn2)s1 [Example 96] | ≤ 100 | 1000 to 10000 |
| C[C@@H](NC(=O)c1cnn2ccccc12)c1cc(C(=O)Nc2cccc(OC(F)(F)F)c2)on1 [Example 217] | ≤ 100 | 100 to 1000 |
| CNC(=O)Cn1cnc2cnc(C(=O)NC(C)c3cnc(Nc4ccc(C(F)(F)F)cc4)s3)cc21 (stereo not shown) [Example 356] | ≤ 100 | 100 to 1000 |
